Columns and labels:
[1] = test system: MDA-MB-231 cells
[2] = test system: PBMC; conditions: 12.5 µM

Compound	Average (percentage cell inhibition), Dmastoparan MDA-MB231 12.5uM [1] [%]	Average (percentage cell inhibition), Mastoparan PBMC [2] [%]
CC[C@H](C)[C@H](N)C(=O)N[C@@H](CC(N)=O)C(=O)N[C@@H](CC(C)C)C(=O)N[C@@H](CCCCN)C(=O)N[C@@H](C)C(=O)N[C@@H](CC(C)C)C(=O)N[C@@H](C)C(=O)N1CCC[C@H]1C(=O)N[C@@H](CC(C)C)C(=O)N[C@@H](C)C(=O)N[C@@H](CCCCN)C(=O)N[C@@H](CCCCN)C(=O)N[C@H](C(=O)N[C@@H](CC(C)C)C(N)=O)[C@@H](C)CC [P8]	8.428	-8.536
CC[C@H](C)[C@H](N)C(=O)N[C@@H](Cc1c[nH]cn1)C(=O)N[C@@H](CC(C)C)C(=O)N[C@@H](CCCCN)C(=O)N[C@@H](C)C(=O)N[C@@H](CC(C)C)C(=O)N[C@@H](C)C(=O)N[C@@H](C)C(=O)N[C@@H](CC(C)C)C(=O)N[C@@H](C)C(=O)N[C@@H](CCCCN)C(=O)N[C@@H](CCCCN)C(=O)N[C@H](C(=O)N[C@@H](CC(C)C)C(N)=O)[C@@H](C)CC [H2]	35.1529	5.675
CC[C@H](C)[C@H](N)C(=O)N[C@@H](CC(N)=O)C(=O)N[C@@H](CC(C)C)C(=O)N[C@@H](CCCCN)C(=O)N[C@@H](C)C(=O)N[C@@H](CC(C)C)C(=O)N[C@@H](C)C(=O)N[C@@H](C)C(=O)N[C@@H](CC(C)C)C(=O)N[C@@H](C)C(=O)N[C@@H](CCCCN)C(=O)N[C@@H](CCCCN)C(=O)N[C@@H](C)C(=O)N[C@@H](CC(C)C)C(N)=O [A13]	24.196	5.573
CC[C@H](C)[C@H](N)C(=O)N[C@@H](CC(N)=O)C(=O)N[C@@H](CC(C)C)C(=O)N[C@@H](CCCCN)C(=O)N[C@@H](C)C(=O)N[C@@H](CC(C)C)C(=O)N[C@@H](C)C(=O)N[C@@H](Cc1c[nH]cn1)C(=O)N[C@@H](CC(C)C)C(=O)N[C@@H](C)C(=O)N[C@@H](CCCCN)C(=O)N[C@@H](CCCCN)C(=O)N[C@H](C(=O)N[C@@H](CC(C)C)C(N)=O)[C@@H](C)CC [H8]	53.8201	-4.293
CC[C@H](C)[C@H](N)C(=O)N[C@@H](CC(N)=O)C(=O)N[C@@H](CC(C)C)C(=O)N[C@@H](CCCCN)C(=O)N[C@@H](C)C(=O)N[C@@H](CC(C)C)C(=O)N[C@@H](C)C(=O)N[C@@H](C)C(=O)N[C@@H](CC(C)C)C(=O)N[C@@H](C)C(=O)N[C@@H](Cc1c[nH]c2ccccc12)C(=O)N[C@@H](CCCCN)C(=O)N[C@H](C(=O)N[C@@H](CC(C)C)C(N)=O)[C@@H](C)CC [W11]	74.1582	64.4734
CC[C@H](C)[C@H](N)C(=O)N[C@@H](CC(N)=O)C(=O)N[C@@H](CC(C)C)C(=O)N[C@@H](CCCCN)C(=O)N[C@@H](C)C(=O)N[C@@H](CC(C)C)C(=O)N[C@@H](C)C(=O)N[C@@H](CCC(=O)O)C(=O)N[C@@H](CC(C)C)C(=O)N[C@@H](C)C(=O)N[C@@H](CCCCN)C(=O)N[C@@H](CCCCN)C(=O)N[C@H](C(=O)N[C@@H](CC(C)C)C(N)=O)[C@@H](C)CC [E8]	39.5903	13.1597
CC[C@H](C)[C@H](N)C(=O)N[C@@H](CC(N)=O)C(=O)N[C@@H](CC(C)C)C(=O)N[C@@H](CCCCN)C(=O)N[C@@H](Cc1ccc(O)cc1)C(=O)N[C@@H](CC(C)C)C(=O)N[C@@H](C)C(=O)N[C@@H](C)C(=O)N[C@@H](CC(C)C)C(=O)N[C@@H](C)C(=O)N[C@@H](CCCCN)C(=O)N[C@@H](CCCCN)C(=O)N[C@H](C(=O)N[C@@H](CC(C)C)C(N)=O)[C@@H](C)CC [Y5]	43.7779	12.3024
CC[C@H](C)[C@H](N)C(=O)N[C@@H](CC(N)=O)C(=O)N[C@@H](CC(C)C)C(=O)N[C@@H](CCCCN)C(=O)N[C@@H](C)C(=O)N[C@@H](CC(C)C)C(=O)N[C@@H](C)C(=O)N[C@@H](C)C(=O)N[C@@H](CC(C)C)C(=O)N[C@@H](Cc1c[nH]cn1)C(=O)N[C@@H](CCCCN)C(=O)N[C@@H](CCCCN)C(=O)N[C@H](C(=O)N[C@@H](CC(C)C)C(N)=O)[C@@H](C)CC [H10]	-5.968	-10.8779
CC[C@H](C)[C@H](NC(=O)[C@H](CCCCN)NC(=O)[C@H](CCCCN)NC(=O)[C@H](C)NC(=O)[C@H](CC(C)C)NC(=O)[C@H](C)NC(=O)[C@H](C)NC(=O)[C@H](CC(C)C)NC(=O)[C@H](C)NC(=O)[C@H](CCCCN)NC(=O)[C@H](CC(C)C)NC(=O)[C@H](CC(N)=O)NC(=O)CN)C(=O)N[C@@H](CC(C)C)C(N)=O [G1]	44.9778	6.436
CC[C@H](C)[C@H](N)C(=O)N[C@@H](CC(N)=O)C(=O)N[C@@H](CC(C)C)C(=O)N[C@@H](CCCCN)C(=O)N[C@@H](C)C(=O)N[C@@H](CC(C)C)C(=O)N[C@@H](C)C(=O)N[C@@H](C)C(=O)N[C@@H](CC(C)C)C(=O)N[C@H](C(=O)N[C@@H](CCCCN)C(=O)N[C@@H](CCCCN)C(=O)N[C@H](C(=O)N[C@@H](CC(C)C)C(N)=O)[C@@H](C)CC)[C@@H](C)CC [I10]	54.8759	25.836
CC[C@H](C)[C@H](N)C(=O)N[C@@H](C)C(=O)N[C@@H](CC(C)C)C(=O)N[C@@H](CCCCN)C(=O)N[C@@H](C)C(=O)N[C@@H](CC(C)C)C(=O)N[C@@H](C)C(=O)N[C@@H](C)C(=O)N[C@@H](CC(C)C)C(=O)N[C@@H](C)C(=O)N[C@@H](CCCCN)C(=O)N[C@@H](CCCCN)C(=O)N[C@H](C(=O)N[C@@H](CC(C)C)C(N)=O)[C@@H](C)CC [A2]	38.1038	9.183
CC[C@H](C)[C@H](N)C(=O)N[C@@H](CC(N)=O)C(=O)N[C@@H](CC(C)C)C(=O)N[C@@H](CCCCN)C(=O)N[C@@H](C)C(=O)N[C@@H](CC(C)C)C(=O)N[C@@H](C)C(=O)N[C@@H](C)C(=O)N[C@@H](CC(C)C)C(=O)N[C@@H](CC(N)=O)C(=O)N[C@@H](CCCCN)C(=O)N[C@@H](CCCCN)C(=O)N[C@H](C(=O)N[C@@H](CC(C)C)C(N)=O)[C@@H](C)CC [N10]	9.754	1.8653
CC[C@H](C)[C@H](NC(=O)[C@H](CCCCN)NC(=O)[C@H](CCCCN)NC(=O)[C@H](C)NC(=O)[C@H](CC(C)C)NC(=O)[C@H](C)NC(=O)[C@H](C)NC(=O)[C@H](CC(C)C)NC(=O)[C@H](C)NC(=O)[C@H](CCCCN)NC(=O)[C@H](CC(C)C)NC(=O)[C@H](CC(N)=O)NC(=O)[C@@H](N)C(C)C)C(=O)N[C@@H](CC(C)C)C(N)=O [V1]	28.5856	10.9012
CC[C@H](C)[C@H](N)C(=O)N[C@@H](CC(N)=O)C(=O)N[C@@H](CC(C)C)C(=O)N[C@@H](CCCCN)C(=O)N[C@@H](C)C(=O)N[C@@H](CC(C)C)C(=O)N[C@@H](C)C(=O)N[C@@H](C)C(=O)N[C@@H](CC(C)C)C(=O)N[C@@H](C)C(=O)N[C@@H](CCCCN)C(=O)N[C@@H](CCCCN)C(=O)N[C@H](C(=O)N[C@@H](CCCCN)C(N)=O)[C@@H](C)CC [K14]	21.2164	6.4564
CC[C@H](C)[C@H](N)C(=O)N[C@@H](CC(N)=O)C(=O)N[C@@H](CC(C)C)C(=O)N[C@H](C(=O)N[C@@H](C)C(=O)N[C@@H](CC(C)C)C(=O)N[C@@H](C)C(=O)N[C@@H](C)C(=O)N[C@@H](CC(C)C)C(=O)N[C@@H](C)C(=O)N[C@@H](CCCCN)C(=O)N[C@@H](CCCCN)C(=O)N[C@H](C(=O)N[C@@H](CC(C)C)C(N)=O)[C@@H](C)CC)[C@@H](C)CC [I4]	30.9221	5.736
CC[C@H](C)[C@H](N)C(=O)N[C@H](C(=O)N[C@@H](CC(C)C)C(=O)N[C@@H](CCCCN)C(=O)N[C@@H](C)C(=O)N[C@@H](CC(C)C)C(=O)N[C@@H](C)C(=O)N[C@@H](C)C(=O)N[C@@H](CC(C)C)C(=O)N[C@@H](C)C(=O)N[C@@H](CCCCN)C(=O)N[C@@H](CCCCN)C(=O)N[C@H](C(=O)N[C@@H](CC(C)C)C(N)=O)[C@@H](C)CC)[C@@H](C)CC [I2]	82.9517	42.1735
CC[C@H](C)[C@H](N)C(=O)N[C@@H](CC(N)=O)C(=O)N[C@@H](CC(C)C)C(=O)N[C@@H](CCCCN)C(=O)N[C@@H](C)C(=O)N[C@@H](Cc1c[nH]cn1)C(=O)N[C@@H](C)C(=O)N[C@@H](C)C(=O)N[C@@H](CC(C)C)C(=O)N[C@@H](C)C(=O)N[C@@H](CCCCN)C(=O)N[C@@H](CCCCN)C(=O)N[C@H](C(=O)N[C@@H](CC(C)C)C(N)=O)[C@@H](C)CC [H6]	1.275	-12.6494
CC[C@H](C)[C@H](N)C(=O)N[C@@H](CC(N)=O)C(=O)N[C@@H](CC(C)C)C(=O)N[C@@H](CCCCN)C(=O)N[C@@H](C)C(=O)N[C@@H](CC(C)C)C(=O)N[C@@H](C)C(=O)N[C@@H](CCCCN)C(=O)N[C@@H](CC(C)C)C(=O)N[C@@H](C)C(=O)N[C@@H](CCCCN)C(=O)N[C@@H](CCCCN)C(=O)N[C@H](C(=O)N[C@@H](CC(C)C)C(N)=O)[C@@H](C)CC [K8]	44.6441	13.8127
